Test results: US20230355571A1, “METHOD FOR TREATING VIRAL AND BACTERIAL INFECTION THROUGH INHALATION THERAPY” (priority 2020, published 2023)
Like-named read-outs stand apart in the source and are kept apart here.

How the values were obtained:
mice [1] = conditions: oral (species not given; mice); cited from earlier work
mice [2] = assay: NOAEL, oral, mice
CB2 receptor = CB2 receptor (Homo sapiens, UniProt P34972); conditions: unit inferred; read-out: Ki, CB2 receptor binding; cited from earlier work
CB2 receptor, sequence (P34972 whole entry): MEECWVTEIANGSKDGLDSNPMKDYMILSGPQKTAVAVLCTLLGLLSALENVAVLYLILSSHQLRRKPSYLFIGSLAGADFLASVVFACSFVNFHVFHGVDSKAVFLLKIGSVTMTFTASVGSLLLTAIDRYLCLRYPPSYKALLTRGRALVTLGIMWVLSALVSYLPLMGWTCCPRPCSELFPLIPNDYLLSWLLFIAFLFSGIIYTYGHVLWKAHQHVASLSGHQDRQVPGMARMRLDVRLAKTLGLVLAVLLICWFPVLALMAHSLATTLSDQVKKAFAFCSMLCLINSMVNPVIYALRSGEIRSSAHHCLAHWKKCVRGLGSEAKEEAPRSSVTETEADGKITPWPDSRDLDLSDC

[3] = tested on: primary human bronchial epithelial cells; conditions: pretreatment; cited from earlier work
guinea pigs [4] = conditions: cited from earlier work
hTRPA1 = hTRPA1 (Homo sapiens, UniProt O75762); conditions: cited from earlier work; for inhibition of hTRPA1 activation by menthol and AITC: compound at 1 mM, menthol 1 mM, AITC 10 uM
hTRPA1, sequence (O75762 whole entry): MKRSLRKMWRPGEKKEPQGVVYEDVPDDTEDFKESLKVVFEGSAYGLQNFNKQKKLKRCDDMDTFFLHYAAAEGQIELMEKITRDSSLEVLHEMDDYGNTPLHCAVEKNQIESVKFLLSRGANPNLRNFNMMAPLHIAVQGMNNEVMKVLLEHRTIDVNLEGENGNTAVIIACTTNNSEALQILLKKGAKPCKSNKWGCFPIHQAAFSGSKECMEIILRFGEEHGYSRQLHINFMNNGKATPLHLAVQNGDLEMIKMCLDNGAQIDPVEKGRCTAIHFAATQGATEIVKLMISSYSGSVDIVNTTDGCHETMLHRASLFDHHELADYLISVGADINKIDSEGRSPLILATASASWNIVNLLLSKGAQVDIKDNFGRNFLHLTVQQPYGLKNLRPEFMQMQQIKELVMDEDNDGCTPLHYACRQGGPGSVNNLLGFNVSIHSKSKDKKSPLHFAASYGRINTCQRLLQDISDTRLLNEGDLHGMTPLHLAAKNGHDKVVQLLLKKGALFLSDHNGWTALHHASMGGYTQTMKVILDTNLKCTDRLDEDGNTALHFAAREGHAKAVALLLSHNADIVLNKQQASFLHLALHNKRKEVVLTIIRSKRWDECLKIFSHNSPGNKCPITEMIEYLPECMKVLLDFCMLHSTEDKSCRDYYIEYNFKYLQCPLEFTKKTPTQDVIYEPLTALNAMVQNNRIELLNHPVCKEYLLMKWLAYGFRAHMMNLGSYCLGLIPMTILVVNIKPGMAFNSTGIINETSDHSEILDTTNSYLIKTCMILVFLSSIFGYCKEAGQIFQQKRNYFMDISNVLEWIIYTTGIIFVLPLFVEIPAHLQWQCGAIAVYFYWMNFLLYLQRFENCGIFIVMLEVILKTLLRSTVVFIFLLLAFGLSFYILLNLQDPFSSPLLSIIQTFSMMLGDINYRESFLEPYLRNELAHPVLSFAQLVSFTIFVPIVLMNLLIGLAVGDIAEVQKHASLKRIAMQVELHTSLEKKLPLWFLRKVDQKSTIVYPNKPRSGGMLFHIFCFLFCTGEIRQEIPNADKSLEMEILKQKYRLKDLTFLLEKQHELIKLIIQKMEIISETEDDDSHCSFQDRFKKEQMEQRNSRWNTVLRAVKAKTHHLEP

rats [5] = assay: NOAEL, oral, rats; assay type: in vivo
Protocol: The NOAEL value for Polysorbate 20 taken orally in rats is greater than 2,500 mg/kg (body weight), the highest dose tested.

rats [6] = conditions: oral, rat, cited from earlier work
[7] = cited from earlier work
guinea pigs [8] = conditions: pretreatment; cited from earlier work
[9] = Table A2 Preferred Base Viral Nebulizer Liquid, single 2 mL dose, 25 mL ELF, 100 percent retained
[10] = Table A3 Preferred Viral Respiratory Challenged Nebulizer Liquid, single 2 mL dose, 25 mL ELF, 100 percent retained
[11] = Table A4 Preferred Bacterial Pneumonia Nebulizer Liquid, single 2 mL dose, 25 mL ELF, 100 percent retained
[12] = Table A6 Preferred Base Nebulizer Liquid with Amino Acids, single 2 mL dose, 25 mL ELF, 100 percent retained
[13] = 2 mL/dose 4 times per day of Table A2 composition

C/C1=C2/[N-][C@H]([C@H](CC(N)=O)[C@@]2(C)CCC(=O)NC[C@@H](C)OP(=O)([O-])O[C@H]2[C@@H](O)[C@@H](n3cnc4cc(C)c(C)cc43)O[C@@H]2CO)[C@]2(C)N=C(/C(C)=C3N=C(/C=C4N=C1[C@@H](CCC(N)=O)C\4(C)C)[C@@H](CCC(N)=O)[C@]\3(C)CC(N)=O)[C@@H](CCC(N)=O)[C@]2(C)CC(N)=O.[CH3-].[Co+3] [methylcobalamin]
Concentration in Epithelial Lining Fluid [9]: 0.5 µg/mL | Concentration in Epithelial Lining Fluid [10]: 1.1 µg/mL | Concentration in Epithelial Lining Fluid [11]: 1.1 µg/mL | Concentration in Epithelial Lining Fluid [12]: 1.1 µg/mL | NOAEL (mice [1]): 500 mg/kg | factor NOAEL over daily inhaled dose (mice [2]; [13]): 596,254 times | NOAEL for a 62 kg adult human (mice [2]; extrapolated from mouse NOAEL): 31,000 mg per day

CCCCC/C=C\C/C=C\C/C=C\C/C=C\CCCC(=O)OC(CO)CO [Table 2-AG, 2-arachidonoyl-glycerol, reference compound]
Ki (CB2 receptor): 0.65 µM

CC(C)c1ccc(NC(=O)Cn2cnc3c2c(=O)n(C)c(=O)n3C)cc1 [HC-030031]
Ca^2+ influx induced by cigarette smoke extract [3]: similar | tussive response induced by TRPA1 agonists (AITC, acrolein, crotonaldehyde, cinnamaldehyde) (guinea pigs [4]): attenuated

CC12CCC(C1)C(C)(C)C2O (stereo not shown) [fenchyl alcohol]
activation of hTRPA1 (hTRPA1): did not activate | inhibition of hTRPA1 activation by menthol and AITC (hTRPA1): completely inhibited

CCCCCCCCCCCC(=O)OCCOCCOCCOCCOCCOCCOCCOCCOCCOCCOCCOCCOCCOCCOCCOCCOCCOCCOCCOCCOCC(OCCOCCOCCOCCOCCOCCOCCOCCOCCOCCOCCOCCOCCOCCOCCOCCOCCOCCOCCOCCO)C1OCC(OCCOCCOCCOCCOCCOCCOCCOCCOCCOCCOCCOCCOCCOCCOCCOCCOCCOCCOCCOCCO)C1OCCOCCOCCOCCOCCOCCOCCOCCOCCOCCOCCOCCOCCOCCOCCOCCOCCOCCOCCOCCO (stereo not shown) [Polysorbate 20]
factor NOAEL over daily inhaled dose (rats [5]; [13]): 2,980 times | NOAEL for a 62 kg adult human (rats [5]; extrapolated from rat NOAEL): 155,000 mg per day | Concentration in Epithelial Lining Fluid [9]: 530 µg/mL | Concentration in Epithelial Lining Fluid [10]: 1070 µg/mL | Concentration in Epithelial Lining Fluid [11]: 1330 µg/mL | Concentration in Epithelial Lining Fluid [12]: 1330 µg/mL | Concentration in Epithelial Lining Fluid (human): 1870 µg/mL | NOAEL (rats [6]): 2,500 mg/kg | LD50 ([7]; in vivo): 3,850 mg/kg

CC1(C)C2CCC1(C)C(O)C2 (stereo not shown) [borneol]
activation of hTRPA1 (hTRPA1): did not activate | inhibition of hTRPA1 activation by menthol and AITC (hTRPA1): completely inhibited

CC1(C)[C@@H]2CC[C@@]1(C)[C@](C)(O)C2 [2-methylosoborneol, 2-methylisoborneol]
IC50 (hTRPA1; TRPA1 activated by 20 uM AITC, read-out: IC-50 concentration, inactivation of TRPA1 activation): 120 µM | activation of hTRPA1 (hTRPA1): did not activate | inhibition of hTRPA1 activation by menthol and AITC (hTRPA1): completely inhibited

C=C1CC/C=C(\C)CC[C@@H]2[C@@H]1CC2(C)C [B-Caryophyllene]
NOAEL (rats [6]; 90 d): >700 mg/kg | LD50 ([7]; oral, rat): >5,000 mg/kg

Cn1c(=O)c2c(CC(=O)Nc3nc(-c4ccc(F)c(C(F)(F)F)c4F)cs3)csc2n(C)c1=O [GRC 17536]
citric acid induced tussive response (guinea pigs [4]): inhibited

NCCS(=O)(=O)O [Taurine]
Concentration in Epithelial Lining Fluid (human): 2670 µg/mL

CC1=CC(=O)C(C(C)C)=CC1=O [thymoquinone]
bronchoalveolar lavage fluid IL-8 (guinea pigs [8]): significantly decreased | bronchoalveolar lavage fluid LTB4 (guinea pigs [8]): did not significantly change

CC12CCC(CC1=O)C2(C)C (stereo not shown) [camphor]
activation of hTRPA1 (hTRPA1): did not activate

O=C1CC2CC[C@H]1C2 [norcamphor]
activation of hTRPA1 (hTRPA1): did not activate
